Among the data in ChEMBL document CHEMBL1157539, “Thousands of chemical starting points for antimalarial lead identification” (Nature, 2010) are XC50 values, retold here.

For this experiment, the system named is Plasmodium falciparum. Description: GSK_TCMDC: Inhibition of Plasmodium falciparum 3D7 in whole erythrocytes, using parasite LDH activity as an index of growth. The experiment is classed as functional, organism-based. The note with it: Plasmodium falciparum, 3D7.
Regarding `COC(=O)CCCCOc1c(OC)cc(Cc2cnc(N)nc2N)cc1OC`, the XC50 is 0.0393 µM.
`O=C(/C=C/c1ccc(Cl)c(Cl)c1)NCCCCCN1CCCN(C(=O)Nc2ccc(Cl)cc2)CC1` gave an XC50 of 0.735 µM.
The value for `CCCCn1c(Sc2ccc(C#N)c([N+](=O)[O-])c2)nnc1-c1ccc(OC)cc1` was 1.03 µM.
With `CCCc1cc(Cc2cnc(N)nc2N)cc(OC)c1OC` the figure was 0.988 µM.
In the case of `Cc1cc(C)nc(-n2[nH]c(C)c(Cc3ccc(C(C)(C)C)cc3)c2=O)n1`, the XC50 stood at 1.01 µM.
With `FC(F)(F)c1cc(Nc2ccc(Oc3ccccc3)cc2)c2cc(-c3ccncc3)ccc2n1` the figure was 0.454 µM.
With `CCNC(=O)Nc1ccc(N(C)c2ccnc(Nc3ccc(CS(C)(=O)=O)cc3)n2)cc1` the figure was 0.0888 µM; with `CCOc1ccc(-c2nonc2NC(=O)c2ccc(F)cc2)cc1OCC`, 0.327 µM.
The value for `NC1CCN(Cc2ccc(-c3ccc(-c4nc5cc(F)ccc5[nH]4)s3)cc2)C1` (configuration not stated) was 0.646 µM.
Turning to `O=C(N[C@@H](Cc1ccccc1)[C@H](O)CNC1CCCc2ccccc21)c1cc(C2CCCC2)cc(N2CCCC2=O)c1` (some centres not stated), the XC50 stood at 0.162 µM.
On to `CCc1nc2c(cnn2CC)c(NC2CCOCC2)c1CNC(=O)c1ccoc1C`, for which the XC50 stood at 0.886 µM.
With `O=C(Nc1cccc(-c2cccc(-c3nc4ccccc4[nH]3)c2)c1)c1ccncc1` the figure was 0.479 µM; with `COc1cccc(Nc2nc(C)cc(Nc3cccc(C#N)c3)n2)c1`, 1.08 µM.
With `CCNc1cc(C(=O)N[C@@H](Cc2ccccc2)[C@H](O)CNCCc2cccc3ccccc23)cc(N2CCCC2=O)c1` the figure was 0.982 µM; with `CN1CCC(NCc2ccc(S(=O)(=O)Nc3ccc(Oc4cccc(Cl)c4)cc3)cc2)CC1`, 0.735 µM; with `c1ccc(-c2cc(NCCCCNc3cc(-c4ccccc4)nc4ccccc34)c3ccccc3n2)cc1`, 0.133 µM.
In turn, `Cc1ccccc1C1CCN(C2CCC(NC(=O)/C=C/c3c(F)ccc(F)c3F)CC2)CC1` (configuration not stated) returned an XC50 of 1.26 µM.
Molecule `c1ccc(CN2CCC(NCc3ccccc3-c3ccc(CNCc4ccc5c(c4)OCO5)cc3)CC2)cc1` displayed an XC50 of 0.326 µM.
With `C[C@@H](COc1ccccc1)NCC(O)c1ccc([N+](=O)[O-])c(OCc2ccccc2)c1` (some centres not stated) the figure was 0.994 µM; with `O=C(Cn1c2ccccc2c(=O)c2ccc(Cl)cc21)Nc1ccc(C(F)(F)F)cc1`, 0.53 µM.
With `CN(Cc1cccc(O)c1)C1CCN(c2cc(NC(=O)c3ccc(F)cc3)ccn2)CC1`, the XC50 was 0.956 µM.
The value for `CCCCc1cc(=O)oc2cc(C)cc(OCc3ccccc3F)c12` was 1.03 µM.
With `COc1ccc2nccc([C@@H](O)CN3CCC(NCc4ccc5c(c4)oc(=S)n5C)CC3)c2c1` the figure was 0.187 µM; with `CS(=O)(=O)Cc1ccc(Nc2nccc(N3CCCc4cc(NC(=O)Nc5cccc(C(F)(F)F)c5)ccc43)n2)cc1`, 0.148 µM; with `COc1ccc2nccc(N(C)CC3(O)CCN(CCc4ccc5c(c4)OCCO5)CC3)c2n1`, 0.143 µM.
The value for `CN(C)C1CCN(Cc2ccc(N3CCN(Cc4cccc5[nH]ccc45)CC3)nc2)CC1` was 1.53 µM; that for `COc1ccc2nccc([C@@H](O)CN3CCC(NCc4nc5ccc(F)cc5[nH]4)CC3)c2c1` was 0.732 µM.
As to `Cc1cccc2nc(-c3ccc(-c4ccc(NC(=O)Nc5cccc(C#N)c5)cc4)s3)[nH]c12`, the XC50 was 0.117 µM.
With `O=C(CCN(Cc1ccco1)c1nc(-c2ccc(F)cc2)nc2ccccc12)NC1CC1` the figure was 1.58 µM; with `O=C(Nc1cccc(CN2CCCN(Cc3ccc(O)cc3)CC2)c1)c1cccc(Cl)c1`, 0.908 µM; with `N#Cc1ccc(N(CCOC(=O)c2ccccc2)Cc2ccccc2C(F)(F)F)cc1C(F)(F)F`, 0.921 µM.
The value for `CCOC(=O)c1ccc(N2CCCCC2)c(NC(=O)C(Cl)(Cl)Cl)c1` was 0.849 µM.
The value for `COc1cccc(-c2ccc(O)c(CNCCc3cccc(F)c3)c2)n1` was 0.914 µM.
The molecule `CN1CCC(NCc2ccc(-c3cccc(S(=O)(=O)NCc4ccccc4)c3)cc2)CC1` displayed an XC50 of 0.324 µM.
Molecule `COc1cc(C)nc2ccc(NC(=O)Nc3ccccc3[N+](=O)[O-])cc12` displayed an XC50 of 0.837 µM.
The value for `Cc1noc(-c2ccc3c(c2)CCN(CCC2CCC(NC(=O)/C=C/c4ccc(F)cc4)CC2)CC3)n1` (configuration not stated) was 1.03 µM; that for `COc1ccc2c(NN=Cc3ccc(N(C)C)cc3)ccnc2c1` was 0.663 µM; that for `O=C(Nc1cccc(CN2CCN(Cc3cccc(O)c3)CC2)c1)c1cc2ccccc2s1` was 1.12 µM.
As for `Cc1noc(C)c1-c1ccc2c(Nc3ccccc3N3CCOCC3)c(C(=O)NCc3ccccc3)cnc2c1`, the XC50 was 1.18 µM.
Take `O=C(N[C@H]1CCN(CCc2ccc(O[C@H]3CCNC3)cc2)C1)c1ccc(Cl)c(Cl)c1`: the XC50 was 0.828 µM.
With `O=c1c(Br)c(C(F)(F)F)[nH]c2ccc(Oc3ccccc3)cc12` the figure was 1.1 µM; with `CCN(CC)CCNC(=O)/C(=C/C=C/c1cc2cc(Cl)c(Cl)cc2[nH]1)OC`, 0.927 µM.
With `Oc1ccc(CCNCCCCCCNCCc2ccc(-c3ccccc3)cc2)cc1O` the figure was 0.603 µM; with `CN(Cc1cccc(F)c1)C1CCN(c2cc(NC(=O)c3ccc(F)cc3)ccn2)CC1`, 1.16 µM; with `Cc1noc(C)c1-c1ccc2c(Nc3ccccc3C(C)(C)C)c(C(=O)NCc3cccc4ccccc34)cnc2c1`, 0.941 µM.
In turn, `CCCCCNc1nc(Nc2ccccc2C)nc2ccccc12` came in with an XC50 of 0.735 µM.
The value for `CC(C)[C@H](NC(=O)c1ccc(O)c(-c2ccc(Cl)c(Cl)c2)c1)C(=O)NCCN1CCCC1` was 0.929 µM.
With `Cc1cc2nc(-c3ccc(C(=O)NC4CCN(Cc5ccccc5)CC4)s3)[nH]c2cc1C` the figure was 0.771 µM; with `CCN(CCCN1CCCCC1)c1cc(C)nc(Nc2ccc(C)cc2Cl)n1`, 0.339 µM; with `CCCCCc1cnc2nc(N)nc(N)c2c1C`, 0.211 µM.
With `NC(=S)Cc1ccc2c(c1)OCO2` the figure was 0.284 µM; with `COc1ccc(Cn2c(Nc3cccc(C(F)(F)F)c3)nc3cc(C(=O)NC4CC4)cnc32)cc1Cl`, 0.727 µM.
The molecule `COc1cc(F)c2ncc(Cl)c(CCN3CCC(NCc4ccc5c(c4)OCCO5)CC3)c2c1` displayed an XC50 of 0.469 µM.
The value for `COc1cc(C=CC(=O)NC2CCC(CN3CCC(c4c[nH]c5ccccc45)CC3)CC2)cc(OC)c1` (configuration not stated) was 0.807 µM.
The value for `CN1CCN(CCCN(Cc2csc(-c3ccc(CNCc4ccccc4)cc3)n2)C(=O)Nc2ccc3ccccc3c2)CC1` was 1.1 µM.
The value for `CCOC(=O)CN1Cc2cc(NCc3ccc4ccc5nc(C)[nH]c(=O)c5c4c3)ccc2C1=O` was 0.7 µM; that for `CNC(=O)c1ccccc1Nc1nc(Nc2ccc(CCN3CCN(C)CC3)cc2)ncc1Cl` was 0.651 µM; that for `CC(C)CC(=O)N(Cc1ccc(-c2ccc(CNC3Cc4ccccc4C3)cc2)cc1)C1CCNCC1` was 1.17 µM.
Take `O=C(NCCCN1CCN(c2cccc(Cl)c2)CC1)c1ccc(-c2nc3cc(Cl)c(Cl)cc3[nH]2)cc1`: the XC50 was 0.697 µM.
With `CCc1nc2nc(C)cc(Nc3cc(C)cc(C)c3)n2n1` the figure was 0.294 µM.
In turn, `CC(C)C[C@@H](C(=O)N[C@@H](CCCCNC(=O)OCc1ccccc1)C(=O)Nc1nccs1)[C@H](C)N(O)C=O` returned an XC50 of 0.19 µM.
`O=C(NC1CCC(N2CCC(O)(c3ccc(F)cc3)CC2)CC1)c1cc2ccccc2[nH]1` (configuration not stated) showed an XC50 of 0.736 µM.
The value for `CC(=O)Nc1ccc(C(=O)Nc2cccc(-c3cccc(-c4nc5cc(F)ccc5[nH]4)c3)c2)cn1` was 0.134 µM; that for `COc1ccc(Cl)cc1N1CCN(CCCNC(=O)c2ccc(-c3nc4cc(Cl)c(C)cc4[nH]3)s2)CC1` was 0.776 µM; that for `Cc1ccc(NC(=O)NCCCCCN2CCC(c3c[nH]c4ccccc34)CC2)cc1I` was 0.815 µM.
`COc1ccc(C=C2SC(=N)N(c3ccccc3OC)C2=O)cc1` gave an XC50 of 0.3 µM.
The value for `Cc1cc(C(=O)CN2C(=O)NC3(CCOc4ccccc43)C2=O)c(C)n1Cc1ccc(F)cc1` (configuration not stated) was 0.881 µM.
With `Brc1cc(Br)c2c(c1)C(NCCCNc1nc3ncccc3[nH]1)CCN2` (configuration not stated) the figure was 0.595 µM; with `Cc1ccc(N2C(=O)C3C(C2=O)C2(c4ccccc4)C(=O)C3(c3ccccc3)C(c3ccccc3)=C2c2ccccc2)c(C)c1` (configuration not stated), 0.529 µM.
The value for `Nc1nc(N)c2c(ccc3c2ccn3CCCC2CCCNC2)n1` (configuration not stated) was 0.898 µM; that for `CN1CCCN(c2ccnc3cc4c(cc23)N(C(=O)c2ccc(Cl)cc2Cl)CC4)CC1` was 0.812 µM.
`Oc1cccc(C2CCCN(Cc3cccc4cc[nH]c34)C2)c1` (configuration not stated) returned an XC50 of 0.507 µM.
Turning to `Cc1cc(OCc2ccccc2)c(OCc2ccccc2)cc1C(O)CN(C)Cc1ccccc1` (configuration not stated), the XC50 came to 0.809 µM.
The value for `CCCc1cc(Cc2cnc(N)nc2N)cc(CCC)c1O` was 0.277 µM.
The value for `FC(F)(F)c1ccccc1OCc1cc(-c2ccncc2)c(COc2ccccc2C(F)(F)F)cc1C1=CCNCC1` was 0.89 µM; that for `Cc1cc(=O)c(-c2ccc(Oc3ccc(C(F)(F)F)cc3)cc2)c(C)n1O` was 0.604 µM; that for `CN(C)CCCOc1ccc(CN2CC[C@H](NC(=O)c3ccc(Cl)c(Cl)c3)C2)cc1Br` was 0.763 µM.
With `Cc1ccc2[nH]c(C)cc(=NN=Cc3cccc(Cl)c3)c2c1` the figure was 0.739 µM; with `Cc1cc(Nc2ccc3c(c2)CCC3)n2ncnc2n1`, 0.967 µM.
As to `Cc1cccc2nc(-c3ccc(-c4ccc(CN5CCCCC5)cc4)s3)[nH]c12`, the XC50 came to 0.521 µM.
With `NC(=O)c1cccc(C(=O)Nc2cccc(-c3csc(-c4nc5ccccc5[nH]4)c3)c2)c1` the figure was 0.133 µM; with `COc1ccc(-c2cncc3ccc(C(=O)NCc4ccncc4)nc23)cc1`, 0.736 µM.
The value for `COc1cc(CNc2ncc(-c3ccsc3)c(-c3nccs3)n2)cc(OC)c1` was 0.126 µM.
The value for `Cc1cc(N2CCCC2)nc(Nc2ccc(NC(=O)Nc3ccccc3)cc2)n1` was 0.165 µM; that for `CC[C@H]1CN2CC[C@H]1C[C@H]2[C@H](O)c1cc(-c2cccc(F)c2)nc2ccc(OC)cc12` was 0.0582 µM; that for `COc1ccc(C2C(C(=O)OC3CCCCC3)=C(C)NC3=C2C(=O)CCC3)cc1Br` (configuration not stated) was 0.579 µM.
The molecule `Clc1ccc(CNc2ccnc(NCCc3coc4ccccc34)n2)c(Cl)c1` displayed an XC50 of 1.17 µM.
